Tests used:
[1] = test system: Tyrosine-protein kinase ABL1 (Homo sapiens), P00519 [F317L]; conditions: Compound concentration 1000.0 nM
[2] = molecular target: Insulin-like growth factor 1 receptor (Homo sapiens) (UniProt P08069); conditions: Compound concentration 1000.0 nM
[3] = molecular target: Serine/threonine-protein kinase Nek11 (Homo sapiens) (UniProt Q8NG66); conditions: Compound concentration 1000.0 nM
[4] = molecular target: Serine/threonine-protein kinase MRCK beta (Homo sapiens) (UniProt Q9Y5S2); conditions: Compound concentration 1000.0 nM
[5] = molecular target: Beta-3 adrenergic receptor (Homo sapiens) (UniProt P13945); conditions: Compound concentration 10.0 uM
[6] = test system: Mast/stem cell growth factor receptor Kit (Homo sapiens), P10721 [D816H]; conditions: Compound concentration 1000.0 nM
[7] = molecular target: Tyrosine-protein kinase TXK (Homo sapiens) (UniProt P42681); conditions: Compound concentration 1000.0 nM
[8] = molecular target: NT-3 growth factor receptor (Homo sapiens) (UniProt Q16288); conditions: Compound concentration 1000.0 nM
[9] = molecular target: Calcium/calmodulin-dependent protein kinase type II subunit beta (Homo sapiens) (UniProt Q13554); conditions: Compound concentration 1000.0 nM
Calcium/calmodulin-dependent protein kinase type II subunit beta (Homo sapiens), sequence (Q13554 whole entry): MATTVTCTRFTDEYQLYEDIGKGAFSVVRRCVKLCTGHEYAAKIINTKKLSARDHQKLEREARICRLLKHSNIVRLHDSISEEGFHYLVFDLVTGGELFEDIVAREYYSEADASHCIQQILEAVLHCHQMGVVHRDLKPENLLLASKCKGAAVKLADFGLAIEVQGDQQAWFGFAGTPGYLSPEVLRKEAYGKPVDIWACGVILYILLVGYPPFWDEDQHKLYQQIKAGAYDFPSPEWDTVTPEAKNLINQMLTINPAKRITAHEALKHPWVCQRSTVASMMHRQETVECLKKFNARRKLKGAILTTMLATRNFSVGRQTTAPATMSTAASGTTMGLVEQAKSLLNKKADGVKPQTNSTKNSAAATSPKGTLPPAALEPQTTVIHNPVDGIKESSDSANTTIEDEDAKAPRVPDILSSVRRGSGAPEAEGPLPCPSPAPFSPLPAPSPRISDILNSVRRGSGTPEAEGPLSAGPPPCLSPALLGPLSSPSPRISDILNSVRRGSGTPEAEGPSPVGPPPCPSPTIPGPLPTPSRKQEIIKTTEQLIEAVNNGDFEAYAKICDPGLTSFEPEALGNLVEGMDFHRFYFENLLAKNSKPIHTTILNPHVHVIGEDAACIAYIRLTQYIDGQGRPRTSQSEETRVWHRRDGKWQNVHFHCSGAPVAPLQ

[10] = molecular target: Cyclin-dependent kinase 4 (Homo sapiens) (UniProt P11802); conditions: Compound concentration 1000.0 nM
Cyclin-dependent kinase 4 (Homo sapiens), sequence (P11802 whole entry): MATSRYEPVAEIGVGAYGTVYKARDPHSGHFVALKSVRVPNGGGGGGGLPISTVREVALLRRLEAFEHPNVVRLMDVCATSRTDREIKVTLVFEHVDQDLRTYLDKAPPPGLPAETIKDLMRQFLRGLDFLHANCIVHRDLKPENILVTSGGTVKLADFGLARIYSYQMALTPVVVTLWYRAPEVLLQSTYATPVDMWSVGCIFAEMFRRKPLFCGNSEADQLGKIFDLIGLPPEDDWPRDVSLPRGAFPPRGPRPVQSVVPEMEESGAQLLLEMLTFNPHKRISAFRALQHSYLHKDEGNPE

[11] = molecular target: Rho-associated protein kinase 2 (Homo sapiens) (UniProt O75116); conditions: Compound concentration 1000.0 nM
[12] = molecular target: Serine/threonine-protein kinase TAO2 (Homo sapiens) (UniProt Q9UL54); conditions: Compound concentration 1000.0 nM
[13] = molecular target: Casein kinase I isoform alpha-like (Homo sapiens) (UniProt Q8N752); conditions: Compound concentration 1000.0 nM
[14] = molecular target: Serine/threonine-protein kinase TAO1 (Homo sapiens) (UniProt Q7L7X3); conditions: Compound concentration 1000.0 nM
[15] = molecular target: Hepatocyte growth factor receptor (Homo sapiens) (UniProt P08581); conditions: Compound concentration 1000.0 nM
[16] = molecular target: ALK tyrosine kinase receptor (Homo sapiens) (UniProt Q9UM73); conditions: Compound concentration 1000.0 nM
[17] = molecular target: Ephrin type-A receptor 2 (Homo sapiens) (UniProt P29317); conditions: Compound concentration 1000.0 nM
[18] = molecular target: Serine/threonine-protein kinase LATS1 (Homo sapiens) (UniProt O95835); conditions: Compound concentration 1000.0 nM
[19] = molecular target: D(2) dopamine receptor (Homo sapiens) (UniProt P14416); conditions: Compound concentration 10.0 uM
[20] = molecular target: Serine/threonine-protein kinase 3 (Homo sapiens) (UniProt Q13188); conditions: Compound concentration 1000.0 nM
[21] = test system: Receptor-type tyrosine-protein kinase FLT3 (Homo sapiens), P36888 [D835V]; conditions: Compound concentration 1000.0 nM
[22] = molecular target: Receptor tyrosine-protein kinase erbB-4 (Homo sapiens) (UniProt Q15303); conditions: Compound concentration 1000.0 nM
Receptor tyrosine-protein kinase erbB-4 (Homo sapiens), sequence (Q15303 whole entry): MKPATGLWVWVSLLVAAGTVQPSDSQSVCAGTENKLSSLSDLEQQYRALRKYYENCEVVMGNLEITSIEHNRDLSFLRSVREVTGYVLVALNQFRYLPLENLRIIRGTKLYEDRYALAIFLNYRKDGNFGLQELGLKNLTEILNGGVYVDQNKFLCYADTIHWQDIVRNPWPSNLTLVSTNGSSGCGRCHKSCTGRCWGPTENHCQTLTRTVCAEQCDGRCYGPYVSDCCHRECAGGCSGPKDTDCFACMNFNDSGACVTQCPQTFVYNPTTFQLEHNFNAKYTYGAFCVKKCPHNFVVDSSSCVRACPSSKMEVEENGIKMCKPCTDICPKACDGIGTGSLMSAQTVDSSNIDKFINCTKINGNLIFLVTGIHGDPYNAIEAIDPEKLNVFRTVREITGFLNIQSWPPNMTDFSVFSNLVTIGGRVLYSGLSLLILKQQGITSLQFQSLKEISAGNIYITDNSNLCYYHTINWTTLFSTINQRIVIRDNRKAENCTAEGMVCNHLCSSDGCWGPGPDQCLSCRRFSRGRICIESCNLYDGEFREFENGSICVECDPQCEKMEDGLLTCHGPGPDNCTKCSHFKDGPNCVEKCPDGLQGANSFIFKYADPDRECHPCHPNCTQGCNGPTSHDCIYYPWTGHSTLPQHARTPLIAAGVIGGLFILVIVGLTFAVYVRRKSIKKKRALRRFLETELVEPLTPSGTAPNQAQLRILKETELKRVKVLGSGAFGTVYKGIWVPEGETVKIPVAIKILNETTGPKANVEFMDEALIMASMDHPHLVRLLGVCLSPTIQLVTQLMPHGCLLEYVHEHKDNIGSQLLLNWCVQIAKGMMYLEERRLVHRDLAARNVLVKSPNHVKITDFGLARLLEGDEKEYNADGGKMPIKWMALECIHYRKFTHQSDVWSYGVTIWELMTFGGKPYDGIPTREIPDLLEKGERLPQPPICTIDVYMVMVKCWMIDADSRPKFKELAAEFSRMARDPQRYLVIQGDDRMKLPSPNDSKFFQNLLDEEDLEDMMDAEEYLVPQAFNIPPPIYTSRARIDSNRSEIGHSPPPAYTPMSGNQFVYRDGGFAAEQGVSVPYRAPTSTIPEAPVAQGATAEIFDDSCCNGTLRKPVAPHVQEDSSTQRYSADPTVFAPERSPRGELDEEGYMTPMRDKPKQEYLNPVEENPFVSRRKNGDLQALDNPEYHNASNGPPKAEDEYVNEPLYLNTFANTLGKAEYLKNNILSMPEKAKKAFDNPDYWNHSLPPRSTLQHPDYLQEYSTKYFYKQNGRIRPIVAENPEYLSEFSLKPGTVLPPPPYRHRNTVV

[23] = molecular target: MAP kinase-activated protein kinase 5 (Homo sapiens) (UniProt Q8IW41); conditions: Compound concentration 1000.0 nM
[24] = molecular target: Serine/threonine-protein kinase/endoribonuclease IRE1 (Homo sapiens) (UniProt O75460); conditions: Compound concentration 1000.0 nM
[25] = molecular target: G protein-coupled receptor kinase 4 (Homo sapiens) (UniProt P32298); conditions: Compound concentration 1000.0 nM
G protein-coupled receptor kinase 4 (Homo sapiens), sequence (P32298 whole entry, looked up): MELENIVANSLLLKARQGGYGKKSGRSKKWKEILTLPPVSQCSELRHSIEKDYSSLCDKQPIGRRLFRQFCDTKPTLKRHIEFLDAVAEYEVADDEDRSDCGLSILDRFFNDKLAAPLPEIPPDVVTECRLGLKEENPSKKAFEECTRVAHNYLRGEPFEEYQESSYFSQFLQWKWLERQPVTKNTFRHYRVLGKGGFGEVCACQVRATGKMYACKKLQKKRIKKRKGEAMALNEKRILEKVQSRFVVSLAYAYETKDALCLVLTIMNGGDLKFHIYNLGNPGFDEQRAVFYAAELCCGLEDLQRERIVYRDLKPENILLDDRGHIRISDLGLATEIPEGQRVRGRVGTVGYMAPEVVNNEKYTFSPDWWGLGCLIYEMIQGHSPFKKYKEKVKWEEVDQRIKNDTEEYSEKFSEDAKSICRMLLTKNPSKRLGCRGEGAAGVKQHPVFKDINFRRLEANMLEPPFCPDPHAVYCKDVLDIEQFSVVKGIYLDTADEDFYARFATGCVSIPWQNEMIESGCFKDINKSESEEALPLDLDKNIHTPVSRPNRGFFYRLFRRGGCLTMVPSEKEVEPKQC

Rattus norvegicus = species: Rattus norvegicus; conditions: Compound concentration 10.0 uM
[26] = molecular target: Beta-2 adrenergic receptor (Homo sapiens) (UniProt P07550); conditions: Compound concentration 10.0 uM
Beta-2 adrenergic receptor (Homo sapiens), sequence (P07550 whole entry, looked up): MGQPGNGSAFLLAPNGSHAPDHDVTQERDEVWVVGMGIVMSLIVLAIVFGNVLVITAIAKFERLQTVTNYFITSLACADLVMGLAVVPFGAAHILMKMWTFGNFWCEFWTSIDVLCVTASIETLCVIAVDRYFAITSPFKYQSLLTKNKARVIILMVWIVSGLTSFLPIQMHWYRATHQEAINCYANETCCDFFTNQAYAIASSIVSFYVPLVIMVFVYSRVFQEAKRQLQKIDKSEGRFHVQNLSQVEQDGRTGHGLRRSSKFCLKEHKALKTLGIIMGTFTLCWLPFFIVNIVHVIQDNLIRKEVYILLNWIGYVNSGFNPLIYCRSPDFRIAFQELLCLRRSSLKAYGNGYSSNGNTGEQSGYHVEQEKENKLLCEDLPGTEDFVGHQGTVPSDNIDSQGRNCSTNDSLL

[27] = molecular target: Sodium-dependent noradrenaline transporter (Homo sapiens) (UniProt P23975); conditions: Compound concentration 10.0 uM
Sodium-dependent noradrenaline transporter (Homo sapiens), sequence (P23975 whole entry): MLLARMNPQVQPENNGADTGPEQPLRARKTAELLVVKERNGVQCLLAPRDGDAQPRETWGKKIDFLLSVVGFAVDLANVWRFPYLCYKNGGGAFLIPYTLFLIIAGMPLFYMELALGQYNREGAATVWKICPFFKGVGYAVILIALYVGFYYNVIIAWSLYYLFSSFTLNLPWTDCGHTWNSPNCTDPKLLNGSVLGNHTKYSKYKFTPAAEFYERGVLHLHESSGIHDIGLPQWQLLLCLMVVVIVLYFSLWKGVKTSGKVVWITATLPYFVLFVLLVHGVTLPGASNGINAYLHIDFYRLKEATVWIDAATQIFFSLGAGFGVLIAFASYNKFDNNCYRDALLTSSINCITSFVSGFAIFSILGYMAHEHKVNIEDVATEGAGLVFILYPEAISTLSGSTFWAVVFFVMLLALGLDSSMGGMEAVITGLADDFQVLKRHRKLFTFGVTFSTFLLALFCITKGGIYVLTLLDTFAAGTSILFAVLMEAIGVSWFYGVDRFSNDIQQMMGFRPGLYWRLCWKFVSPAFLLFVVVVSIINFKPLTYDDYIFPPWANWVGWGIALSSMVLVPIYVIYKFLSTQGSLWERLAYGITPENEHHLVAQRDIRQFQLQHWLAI

[28] = molecular target: Mitogen-activated protein kinase 8 (Homo sapiens) (UniProt P45983); conditions: Compound concentration 1000.0 nM
[29] = test system: Hepatocyte growth factor receptor (Homo sapiens), P08581 [M1250T]; conditions: Compound concentration 1000.0 nM
[30] = molecular target: Calcium/calmodulin-dependent protein kinase type 1G (Homo sapiens) (UniProt Q96NX5); conditions: Compound concentration 1000.0 nM
[31] = molecular target: Activin receptor type-1B (Homo sapiens) (UniProt P36896); conditions: Compound concentration 1000.0 nM
[32] = molecular target: Epidermal growth factor receptor (Homo sapiens) (UniProt P00533); conditions: Compound concentration 1000.0 nM
[33] = molecular target: Phosphatidylinositol 4-phosphate 3-kinase C2 domain-containing subunit beta (Homo sapiens) (UniProt O00750); conditions: Compound concentration 1000.0 nM
[34] = molecular target: T1, 5-hydroxytryptamine receptor 1A (Homo sapiens) (UniProt P08908); conditions: Compound concentration 10.0 uM
T1 sequence (whole entry): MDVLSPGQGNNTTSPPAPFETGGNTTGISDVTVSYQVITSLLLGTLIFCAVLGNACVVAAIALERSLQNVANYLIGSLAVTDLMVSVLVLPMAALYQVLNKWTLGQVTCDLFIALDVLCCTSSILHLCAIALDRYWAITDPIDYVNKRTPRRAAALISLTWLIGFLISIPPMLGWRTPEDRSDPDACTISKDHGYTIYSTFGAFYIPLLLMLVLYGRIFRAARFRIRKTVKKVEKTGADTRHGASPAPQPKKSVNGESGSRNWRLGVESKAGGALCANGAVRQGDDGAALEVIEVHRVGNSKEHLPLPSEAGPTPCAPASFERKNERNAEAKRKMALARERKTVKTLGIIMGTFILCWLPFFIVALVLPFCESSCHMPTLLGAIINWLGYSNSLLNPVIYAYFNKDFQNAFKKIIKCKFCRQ

[35] = molecular target: Epithelial discoidin domain-containing receptor 1 (Homo sapiens) (UniProt Q08345); conditions: Compound concentration 1000.0 nM
[36] = molecular target: Cyclin-dependent kinase 4 (Homo sapiens) (UniProt P11802); conditions: Compound concentration 1000.0 nM; remark: listed apart in the source
[37] = molecular target: Ephrin type-A receptor 4 (Homo sapiens) (UniProt P54764); conditions: Compound concentration 1000.0 nM
Ephrin type-A receptor 4 (Homo sapiens), sequence (P54764 whole entry): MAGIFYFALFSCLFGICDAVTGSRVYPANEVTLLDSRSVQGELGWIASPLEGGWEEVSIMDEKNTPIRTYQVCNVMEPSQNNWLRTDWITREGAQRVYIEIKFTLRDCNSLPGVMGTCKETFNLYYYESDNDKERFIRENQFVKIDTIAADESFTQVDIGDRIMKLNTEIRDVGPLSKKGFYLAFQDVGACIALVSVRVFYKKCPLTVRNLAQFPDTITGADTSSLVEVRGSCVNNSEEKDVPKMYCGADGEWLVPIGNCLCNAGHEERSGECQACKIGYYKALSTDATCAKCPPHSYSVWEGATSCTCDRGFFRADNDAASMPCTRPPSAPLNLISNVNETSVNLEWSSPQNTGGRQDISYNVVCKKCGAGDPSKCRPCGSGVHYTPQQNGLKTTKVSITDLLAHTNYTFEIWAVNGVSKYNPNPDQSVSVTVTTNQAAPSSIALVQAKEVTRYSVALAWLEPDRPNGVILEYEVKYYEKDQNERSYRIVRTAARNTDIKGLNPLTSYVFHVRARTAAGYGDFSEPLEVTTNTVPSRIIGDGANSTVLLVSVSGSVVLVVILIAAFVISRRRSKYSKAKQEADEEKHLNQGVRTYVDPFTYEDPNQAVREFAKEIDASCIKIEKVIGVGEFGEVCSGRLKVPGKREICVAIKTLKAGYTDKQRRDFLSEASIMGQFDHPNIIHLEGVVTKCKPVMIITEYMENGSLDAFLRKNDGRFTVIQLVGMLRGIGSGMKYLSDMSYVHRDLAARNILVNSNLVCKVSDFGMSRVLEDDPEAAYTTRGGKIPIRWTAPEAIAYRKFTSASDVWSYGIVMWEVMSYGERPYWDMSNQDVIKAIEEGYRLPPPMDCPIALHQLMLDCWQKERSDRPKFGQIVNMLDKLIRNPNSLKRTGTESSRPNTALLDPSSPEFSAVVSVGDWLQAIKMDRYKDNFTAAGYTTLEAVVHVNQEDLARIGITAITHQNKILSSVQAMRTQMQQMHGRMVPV

[38] = molecular target: Cyclin-dependent kinase 18 (Homo sapiens) (UniProt Q07002); conditions: Compound concentration 1000.0 nM
[39] = molecular target: Interleukin-1 receptor-associated kinase 4 (Homo sapiens) (UniProt Q9NWZ3); conditions: Compound concentration 1000.0 nM

CN(C)CC#Cc1ccc(OCCCc2sc(N3CCc4cccc(C(=O)Nc5nc6ccccc6s5)c4C3)nc2C(=O)O)c(F)c1 [A-1155463]
residual activity [1]: 100% | residual activity [2]: 98% | residual activity [3]: 100% | residual activity [4]: 87% | inhibition [5]: 3.53% | residual activity [6]: 71% | residual activity [7]: 100% | residual activity [8]: 100% | residual activity [9]: 79% | residual activity [10]: 100% | residual activity [11]: 100% | residual activity [12]: 100% | residual activity [13]: 100% | residual activity [14]: 100% | residual activity [15]: 61% | residual activity [16]: 100% | residual activity [17]: 92% | residual activity [18]: 76% | inhibition [19]: 31.5% | residual activity [20]: 88% | residual activity [21]: 100% | residual activity [22]: 99% | residual activity [23]: 99% | residual activity [24]: 84% | residual activity [25]: 100% | inhibition (Rattus norvegicus): 61.1% | inhibition [26]: 27.1% | inhibition [27]: 42.9% | residual activity [28]: 62% | residual activity [29]: 100% | residual activity [30]: 94% | residual activity [31]: 100% | residual activity [32]: 87% | residual activity [33]: 100% | inhibition [34]: 5.18% | residual activity [35]: 100% | residual activity [36]: 100% | residual activity [37]: 88% | residual activity [38]: 100% | residual activity [39]: 100%

Reference: ChEMBL document CHEMBL4507311, “Data for DCP probe A-1155463” (2021)
